This passage reports change in vivo and IC50 results from patent US7304093B2, “Ketone compounds and compositions for cholesterol management and related uses” (Esperion Therapeutics, Inc., priority 2000, dated 2007).

The subject of one experiment is female obese Zucker rats. Description: Serum lipid and glycemic control variables in chow-fed obese female Zucker rats, daily oral gavage for two weeks. The class given is in vivo, rat. The following applies: Rattus norvegicus, Table 9; for change in vivo at 30 mg/kg: 30 mg/kg daily oral; for change in vivo at 100 mg/kg: 100 mg/kg daily oral. As to the method:
Ten- to twelve-week old (400-500 grams) female Zucker fatty rats Cr1: (Zuc)-faBR were obtained from Charles River Laboratories. Animals were acclimated to the laboratory environment for seven days. During the acclimation and study period, animals were housed by group in shoebox polycarbonate cages on Cellu-Dri bedding. The temperature and humidity in the animals' quarters (68-78° F.; 30-75% RH) were monitored and the airflow in the room was sufficient to provide several exchanges per hour with 100% fresh filtered air. An automatic timing device provided an alternating 12-hour cycle of light and dark. Rats received pelleted Purina Laboratory Rodent Chow® (5001) prior to and during the drug intervention period except for a 6-hour phase prior to blood sampling. Fresh water was supplied ad libitum via an automatic watering system. Compounds were dissolved, suspended by mixing in a dosing vehicle consisting of 1.5% carboxymethylcellulose/0.2% Tween 20 or 20% ethanol and 80% polyethylene glycol-200 [v/v]. Dose volume of vehicle or vehicle plus each compound was set at 0.25% of body weight in order to deliver the appropriate dose. Doses were administered daily by oral gavage, approximately between 8-10 AM. Regarding blood sampling, animals were fasted for 6 hours prior to all blood collections. Prior to and after 7 days of dosing, a 1.0- to 2.0-mL sample of blood was collected by administering O2/CO2 anesthesia and bleeding from the orbital venous plexus. Following 14 days of dosing, blood was collected by cardiac puncture after euthanasia with CO2. All blood samples were processed for separation of serum and stored at −80° C. until analysis. Commercially available kits were used to determine serum triglycerides (Roche Diagnostic Corporation, Kit No. 148899 or Boehringer Mannheim, Kit No. 1488872), total cholesterol (Roche Diagnostic Corporation, Kit No. 450061), non-esterified fatty acids (Wako Chemicals, Kit No. 994-75409) and β-hydroxybutyrate (Wako Chemicals, Kit No. 417-73501 or Sigma Kit. No. 310-0) on a Hitachi 912 Automatic Analyzer (Roche Diagnostic Corporation). In some instances, an in-house cholesterol reagent was used to determine total serum cholesterol levels. Serum lipoprotein cholesterol levels were determined by lipoprotein profile analysis. Lipoprotein profiles were analyzed using gel-filtration chromatography on a Superose 6HR (1×30 cm) column equipped with on-line detection of total cholesterol as described by Kieft et al (Kieft, K. A.; Bocan, T. M.; Krause, B. R. Rapid on-line determination of cholesterol distribution among plasma lipoproteins after high-performance gel filtration chromatography. J. Lipid Res. 1991, 32, 859-866.). The total cholesterol content of each lipoprotein was calculated by multiplying the independent values determined for serum total cholesterol by the percent area of each lipoprotein in the profile. The percent body weight gain and the ratio of liver to body weight is also determined. Selected data are shown as absolute values or as a percent change of the pretreatment values in Tables 8 and 9.
Select compounds (214c, 210c, and 210g) were further evalutated in the Zucker rat by performing a full dose response and measuring additional scrum variables including markers for diabetes (Tables 10-12).

In the next experiment the test system is primary rat hepatocytes. The experiment in a line: Inhibition of lipid synthesis ([1-14C]-acetate incorporation) in primary cultures of rat hepatocytes. The following applies: Hepatocyte, 4 h incubation with [1-14C]-acetate. The class given is cell-based. As to the method:
Compounds were tested for inhibition of lipid synthesis in primary cultures of rat hepatocytes. Male Sprague-Dawley rats were anesthetized with intraperitoneal injection of sodium pentobarbital (80 mg/kg). Rat hepatocytes were isolated essentially as described by the method of Seglen (Seglen, P. O. Hepatocyte suspensions and cultures as tools in experimental carcinogenesis. J. Toxicol. Environ. Health 1979, 5, 551-560). Hepatocytes were suspended in Dulbecco's Modified Eagles Medium containing 25 mM D-glucose, 14 mM HEPES, 5 mM L-glutamine, 5 mM leucine, 5 mM alanine, 10 mM lactate, 1 mM pyruvate, 0.2% bovine serum albumin, 17.4 mM non-essential amino acids, 20% fetal bovine serum, […] and 20 μg/mL gentamycin) and plated at a density of 1.5×10^5 cells/cm^2 on collagen-coated 96-well plates. Four hours after plating, media was replaced with the same media without serum. Cells were grown overnight to allow formation of monolayer cultures. Lipid synthesis incubation conditions were initially assessed to ensure the linearity of [1-^14C]-acetate incorporation into hepatocyte lipids for up to 4 hours. Hepatocyte lipid synthesis inhibitory activity was assessed during incubations in the presence of 0.25 μCi [1-^14C]-acetate/well (final radiospecific activity in assay is 1 Ci/mol) and 0, 1, 3, 10, 30, 100 or 300 μM of compounds for 4 hours. At the end of the 4-hour incubation period, medium was discarded and cells were washed twice with ice-cold phosphate buffered saline and stored frozen prior to analysis. To determine total lipid synthesis, 170 μl of MicroScint-E® and 50 μl water was added to each well to extract and partition the lipid soluble products to the upper organic phase containing the scintillant. Lipid radioactivity was assessed by scintillation spectroscopy in a Packard TopCount NXT.

The mark [1] stands for this setting: 168 h, 1 wk, read-out: HDL-Cholesterol, Percent Change from Pre-Treatment.
[2] abbreviates: 168 h, 1 wk, read-out: NonHDL-Cholesterol, Percent Change from Pre-Treatment.
The mark [3] stands for this setting: 168 h, 1 wk, read-out: TG, Percent Change from Pre-Treatment.
The mark [4] stands for this setting: 336 h, 2 wk, read-out: HDL-Cholesterol, Percent Change from Pre-Treatment.
Where [5] appears, read: 336 h, 2 wk, read-out: NonHDL-Cholesterol, Percent Change from Pre-Treatment.
Where [6] appears, read: 336 h, 2 wk, read-out: TG, Percent Change from Pre-Treatment.
Where [7] appears, read: Table 7, ranges: confidence of estimate insufficient to assign a value.

Like-named read-outs stand apart in the source and are kept apart here.

In the case of `CC(C)(CO)CCCCC(=O)CCCCC(C)(CO)c1ccccc1` (centres unmarked) [Compound 218, 1,13-Dihydroxy-2,2,12-trimethyl-12-phenyltridecan-7-one], the change in vivo at 30 mg/kg was -18% with female obese Zucker rats (setting [1]); 17% with female obese Zucker rats (setting [2]); 18% in the experiment on female obese Zucker rats (setting [3]); -5% in the experiment on female obese Zucker rats (setting [4]); -8% in the experiment on female obese Zucker rats (setting [5]); -7% in the experiment on female obese Zucker rats (setting [6]). In addition, in the experiment with primary rat hepatocytes (setting [7]), the IC50 is 1 µM.

For the molecule `CCOC(=O)C(C)(C)CCCCCCCC(=O)CCCCCCCC(C)(C)C(=O)OCC` [Compound 106n, Diethyl 10-oxo-2,2,18,18-tetramethyl-nonadecanedioate], half-maximal inhibition in the experiment with primary rat hepatocytes (Table 6) (IC50) was put at 13 µM.

As to `CC(CO)(CCCCCC(=O)CCCCCC(C)(CO)c1ccccc1)c1ccccc1` (centres unmarked) [Compound 214h, 1,15-Dihydroxy-2,14-dimethyl-2,14-diphenylpentadecan-8-one], the change in vivo at 100 mg/kg in the experiment on female obese Zucker rats (setting [1]) turned out to be 2%; with female obese Zucker rats (setting [2]), 29%; in the experiment on female obese Zucker rats (setting [3]), 24%; with female obese Zucker rats (setting [4]) it was 10%; with female obese Zucker rats (setting [5]) it was 9%; with female obese Zucker rats (setting [6]) it was 1%. Besides, in the experiment with primary rat hepatocytes (setting [7]), the IC50 was 93 µM.

Take `CC(C)(CO)Cc1cccc(C(=O)c2cccc(CC(C)(C)CO)c2)c1` [Compound 232, Bis[3-(3-hydroxy-2,2-dimethylpropyl)-phenyl]-methanone]: the change in vivo at 100 mg/kg in the experiment with female obese Zucker rats (setting [1]) was 1%; in the experiment with female obese Zucker rats (setting [2]), -15%; in the experiment on female obese Zucker rats (setting [3]), -29%; with female obese Zucker rats (setting [4]), -11%; in the experiment on female obese Zucker rats (setting [5]), -5%; in the experiment with female obese Zucker rats (setting [6]) it was -8%. Further, in the experiment on primary rat hepatocytes (setting [7]), the half-inhibitory concentration (IC50) was 52 µM.

In the case of `CC(C)Cc1ccc(C(C)(CO)CCCCC(=O)CCCCC(C)(CO)c2ccc(CC(C)C)cc2)cc1` (centres unmarked) [Compound 214f, 1,13-Dihydroxy-2,12-bis-(4-isobutylphenyl)-2,12-dimethyltridecan-7-one], the change in vivo at 100 mg/kg with female obese Zucker rats (setting [1]) is -5%; with female obese Zucker rats (setting [2]) it was 28%; with female obese Zucker rats (setting [3]) it was -11%; in the experiment on female obese Zucker rats (setting [4]) it was 6%; in the experiment on female obese Zucker rats (setting [5]), 34%; with female obese Zucker rats (setting [6]), -15%.

`CC(C)(CO)CCCCCC(=O)CCCCC(C)(C)CO` [Compound 219, 1,14-Dihydroxy-2,2,13,13-tetramethyltetradecan-7-one]: the change in vivo at 100 mg/kg was 78% in the experiment on female obese Zucker rats (setting [1]); -70% in the experiment with female obese Zucker rats (setting [2]); -85% in the experiment on female obese Zucker rats (setting [3]); 78% with female obese Zucker rats (setting [4]); -78% in the experiment with female obese Zucker rats (setting [5]); -87% with female obese Zucker rats (setting [6]). Further, the concentration for half-maximal inhibition (IC50) in the experiment with primary rat hepatocytes (setting [7]) is 2 µM.

Consider `CC(C)(CCCCCCC(=O)CCCCCCC(C)(C)C(=O)O)C(=O)O` [Compound 210i, 2,2,16,16-Tetramethyl-9-oxoheptadecanedioic acid], for which the half-inhibitory concentration (IC50) in the experiment with primary rat hepatocytes (setting [7]) is 9 µM.

For the molecule `CC(CO)(CCCC(=O)CCCC(C)(CO)c1ccccc1)c1ccccc1` (centres unmarked) [Compound 214b, 1,11-Dihydroxy-2,10-dimethyl-2,10-diphenylundecan-6-one], the change in vivo at 100 mg/kg in the experiment with female obese Zucker rats (setting [1]) is -14%; in the experiment on female obese Zucker rats (setting [2]), -18%; with female obese Zucker rats (setting [3]) it was -20%; in the experiment on female obese Zucker rats (setting [4]), -11%; in the experiment on female obese Zucker rats (setting [5]), -32%; with female obese Zucker rats (setting [6]), -17%. The IC50 in the experiment with primary rat hepatocytes (setting [7]) is 100 to 300 µM.

Take `CC(C)(CO)CCCCCCC(=O)CCCCCCC(C)(C)CO` [Compound 214i, 1,17-Dihydroxy-2,2,16,16-tetramethylheptadecan-9-one]: the change in vivo at 30 mg/kg in the experiment with female obese Zucker rats (setting [1]) was 85%; with female obese Zucker rats (setting [2]) it was -50%; in the experiment on female obese Zucker rats (setting [3]), -58%; in the experiment with female obese Zucker rats (setting [4]), 61%; with female obese Zucker rats (setting [5]), -32%; in the experiment on female obese Zucker rats (setting [6]), -33%. Besides, the IC50 in the experiment with primary rat hepatocytes (setting [7]) is 2 µM.

With `CC(CO)(CCCCC(=O)CCCCC(C)(CO)c1ccccc1)c1ccccc1` (centres unmarked) [Compound 214d, 1,13-Dihydroxy-2,12-dimethyl-2,12-diphenyltridecan-7-one], the change in vivo at 30 mg/kg in the experiment with female obese Zucker rats (setting [1]) was -1%; with female obese Zucker rats (setting [2]), -30%; in the experiment with female obese Zucker rats (setting [3]) it was -24%; in the experiment with female obese Zucker rats (setting [4]) it was -27%; in the experiment with female obese Zucker rats (setting [5]) it was 30%; with female obese Zucker rats (setting [6]), 20%. Also, the IC50 in the experiment with primary rat hepatocytes (setting [7]) was 100 to 300 µM.

For `CC(C)(C)OC(=O)C1(CCCCC(=O)CCCCC2(C(=O)OC(C)(C)C)CC2)CC1` [Compound 106d, t-Butyl 1-[9-[1-(tert-butoxycarbonyl)cyclopropyl]-5-oxononyl]-1-cyclopropanecarboxylate], the IC50 in the experiment with primary rat hepatocytes (Table 6) came out at 35 µM.

As to `Cc1ccc(C(C)(CO)CCCCC(=O)CCCCC(C)(CO)c2ccc(C)cc2)cc1` (centres unmarked) [Compound 214e, 1,13-Dihydroxy-2,12-dimethyl-2,12-di-p-tolyltridecan-7-one], the 50% inhibitory concentration (IC50) with primary rat hepatocytes (setting [7]) was 100 to 300 µM.

As to `CC(CCCCC(=O)CCCCC(C)(C(=O)O)c1ccccc1)(C(=O)O)c1ccccc1` (centres unmarked) [Compound 210d, 2,12-Dimethyl-7-oxo-2,12-diphenyltridecanedioic acid], the change in vivo at 100 mg/kg with female obese Zucker rats (setting [1]) is 43%; in the experiment with female obese Zucker rats (setting [2]) it was 36%; in the experiment with female obese Zucker rats (setting [3]), -36%; in the experiment with female obese Zucker rats (setting [4]) it was 45%; with female obese Zucker rats (setting [5]) it was 79%; in the experiment with female obese Zucker rats (setting [6]), -8%.
